Reference: patent publication US6923951B2, “Non-invasive localization of a light-emitting conjugate in a mammal” (priority 1994, dated 2005)

How the values were obtained:
SL1344lux Salmonella = test: Effects of ciprofloxacin treatment on bioluminescence from SL1344lux Salmonella in orally inoculated mice; format: in vivo, Salmonella typhimurium
Procedure: Effects of Ciprofloxacin on Salmonella Infection. […] Mice are orally inoculated with SL1344lux and treated with […] of ciprofloxacin, an antibiotic effective against Salmonella infections. The mice are imaged at selected time periods following treatment, and the extent of infection is quantitated by measuring photon emission. Photon emission in treated mice is compared to values before the initiation of treatment, and to values from control mice that had been infected, but not treated. Results from one such experiment are shown in FIGS. 11A, 11B, 11C, 11D, and 11E and discussed in Example 10.
Animals or objects to be imaged were immobilized in a light-tight box containing a door and a charge-coupled device (CCD) camera with a two stage microchannel intensifier head (model C2400-40, Hamamatsu). The camera was attached, via cables leading out of the box, to an “ARGUS 50” image processor (Hamamatsu).
Bioluminescence images were generated by integrating photons for a selected period of time, typically 5 minutes. […]
FIGS. 11B and 11D show composite images of representative animals from the control and treated groups, respectively, immediately before initiation of treatment of the experimental group. […] The total number of photons detected over the abdominal area were determined, normalized to the value at t=0, and plotted in FIG. 11A with respect to time post-treatment.

HIV LTR = test: DMSO induction of HIV LTR-driven luciferase expression in transgenic mice; format: in vivo, mouse
Text: Transgenic mice containing a construct composed of the regulatory portion of the HIV LTR (U3 region) upstream of the coding sequence of the firefly luciferase gene were generated and evaluated for the emission of photons after transmission through tissues. A diagram of the construct is shown at the bottom of FIG. 13. Numbers along the construct indicate nucleotide positions relative to the start of transcription. Sequences matching known motifs of cellular transcription factors are indicated with the names of the factors. Transcription from the HIV LTR was activated in the right ear of each two animals with a single topical application of dimethyl sulfoxide (DMSO). The animal on the left in FIG. 13 was given 150 μl of an aqueous solution of the substrate luciferin (50 mg/ml) via intraperitoneal (i.p.) injection. The animal on the right was not given substrate. 20 min. post treatment with substrate the animals were imaged as described for the plate in FIG. 12 with a 20 min. integration time. […] This technology allows for the temporal and spatial analyses of transcriptional activity in living animals.
The left half of the shaved dorsal surface of the transgenic animals and the left ear were treated twice daily for two days with DMSO to activate expression of the HIV-1 LTR. Luciferin was applied topically over the entire surface of the back and both ears, and animals were imaged immediately after addition of substrate.
This signal is assumed to be due to ingestion of DMSO during grooming (FIG. 17).

[1] = test system: dermal cells in transgenic mice
Procedure: In order to optimize delivery of substrate, the substrate was topically delivered to dermal cells. The HIV LTR was induced in the skin of mice with twice daily treatments of DMSO over the entire surface of the back and the right ear for two consecutive days. Substrate was applied to the skin in solutions prepared in DMSO. Concentrations included 200 mM, 100 mM, 50 mM, 25 mM, and 12.5 mM. 5 μl of each concentration were spotted, in quadruplicate, on the backs using a multichannel pipette with the highest concentrations near the head. 5 μl of the 50 mM solution was applied to each ear. 2 min. after application the animal was imaged as described in FIG. 12. […] Solutions of 25% H2O in DMSO to 100% H2O were tested.
The experiment of induction of luciferase expression in ears and systemic luciferin delivery of Example 14 was repeated with topical administration of substrate in 100% DMSO (FIG. 15). […] See, FIGS. 13 and 15.

In the case of `O=C(O)c1cn(C2CC2)c2cc(N3CCNCC3)c(F)cc2c1=O` [ciprofloxacin], the “Bioluminescence over the abdomen” value (SL1344lux Salmonella; Balb/c mice orally inoculated with SL1344lux, at 8 days p.i. 100 mg ciprofloxacin hydrochloride i.p. (3 mg/kg body weight), 5.5 h after initiation of treatment) is reported as “reduced to undetectable levels” and the “Infection (photon emission) compared to time zero and to untreated control mice” value (SL1344lux Salmonella; mice orally inoculated with SL1344lux, treated with 100 mg of ciprofloxacin) is reported as “significantly reduced”.
For `C[S+](C)[O-]` [DMSO, dimethyl sulfoxide], the “Bioluminescence from internal tissues” value (HIV LTR; animals treated with DMSO on one ear only) was “Bioluminescence was detectable from the abdomens”, the “Bioluminescence after unilateral DMSO treatment” value (HIV LTR; left half of shaved dorsal surface and left ear treated twice daily for two days, luciferin topical over back and both ears) was “Unilateral emission of bioluminescence corresponding to the induced region” and the “Bioluminescence from the DMSO-induced ear” value (HIV LTR; single topical application of DMSO on right ear, luciferin 150 μl of 50 mg/ml i.p., imaged 20 min. post substrate) was “light emission over the right ear”.
`O=C(O)[C@H]1CSC(c2nc3ccc(O)cc3s2)=N1` [luciferin] was tested, and the “Bioluminescence from spots containing 200 mM luciferin” value ([1]; 5 μl spots in DMSO on DMSO-induced back skin) was “roughly equivalent to that from the 100 mM spots”, the “Bioluminescent response versus topical luciferin concentration” value ([1]; 5 μl spots of luciferin in DMSO on DMSO-induced back skin, imaged 2 min. after application) was “increase linearly over the concentrations from 12.5 mM to 100 mM” and the “Bioluminescence from solutions of luciferin containing water” value ([1]; mouse, in vivo) was “no detectable bioluminescence”. For the same compound, the “Time of peak light emission, systemic substrate” value ([1]; mouse, in vivo) was 20 to 30 min and the “Time of peak light emission, topical substrate” value ([1]; mouse, in vivo) was “immediately after topical treatment”.
